Six compounds from patent publication US20190124918A1, “BIOFILM FORMATION INHIBITOR AND BIOFILM FORMATION INHIBITING COMPOSITION” (KAO CORPORATION, priority 2016, published 2019) can be followed below.

Structures are written as SMILES.

The subject of assay [1] is Pseudomonas PAO1 strain (ATCC 15692). The experiment in a line: Growth of test microbe (turbidity OD600), 96-well microplate culture. Format: cell-based. Here is the method: Pseudomonas PAO1 strain (ATCC 15692) was subjected to stationary culture performed in LB culture medium (Lysogeny Broth; manufactured by Becton Dickinson) at 37° C. for 24 hours. The turbidity (OD600) of the culture solution was measured. The culture solution was diluted with Mueller Hinton Broth (BBL made) to prepare a suspension (15 mL) having a turbidity (OD600) of 1/10^6.
To each of the wells of a 96-well microplate (351172; manufactured by Japan Becton Dickinson), 6 μL of DMSO (Tokyo Chemical Industry Co. Ltd) and an ethanol solution (1 μL, 3 μL or 5 μL) of a test compound were added. After that, the microplate was allowed to stand still at room temperature for 5 hours to evaporate ethanol. The suspension of Pseudomonas microbe prepared in the above step 1) was added in an amount of 145 μL per well and culture was initiated. As the test compound, 2-methylhydroquinone (Sigma Aldrich) and p-toluquinone (Tokyo Kasei) were used. As a reference compound, sodium hypochlorite (manufactured by Wako Pure Chemical Industries Ltd.) was used. As a control, an ethanol solvent (EtOH control) alone was used. The concentration of the test compound in the ethanol solution is 1,000 ppm or 10,000 ppm and the final concentration of the test compound in the culture solution was about from 7 to 333 ppm.
After the 96-well microplate was subjected to stationary culture performed at 30° C. for 24 hours, turbidity (OD600) was measured to check growth. Subsequently, individual wells were stained with 0.1% crystal violet and thoroughly washed twice with physiological saline. To each well, 200 μL of ethanol was added and the absorbance (OD570) was measured to obtain the amount of the biofilm formed.
Compounds listed in Table 3 were each added to a test microbe and culture was conducted by the same procedure as in Test Example 1 and the amount of growth (OD600) and the amount of biofilm formed (OD570) were measured. For compounds a, b, c, f, h, i, J and k, 20 mM ethanol solutions were prepared; whereas for compounds d, e, g, 5 mM ethanol solutions were prepared. The solutions were each added to a 96-well microplate in an amount of 1 to 8 μL and evaluation was made. The final concentrations of the individual compounds are described in Table 3.
(§1) Growth inhibition rates relative to the control (ethanol alone) were calculated based on OD600 values measured and in accordance with the following expression. In addition, biofilm (BF) formation inhibition rates relative to the control (ethanol alone) were calculated based on OD570 values and in accordance with the following expression:
Growth inhibition (%)=(1−(compound addition group OD600/control group OD600))×100
(§2) As a control, an ethanol solvent alone was used (EtOH control). The concentrations of test compounds in the ethanol solution were as follows: test compound 1: 20 mM, test compounds 2 to 7: 100 mM. To each of the wells of a 96-well microplate (351172; manufactured by Japan Becton Dickinson), 6 μL of DMSO (Tokyo Kasei) and an ethanol solution of each test compound (1 to 8 μL) were added and then the microplates were allowed to stand still at room temperature for 5 hours to evaporate ethanol. A suspension solution of a Pseudomonas microbe prepared in the same procedure as in Test Example 1, 1) was added in an amount of 145 μL per well and culture was initiated.
(§3) After the 96-well microplate was subjected to stationary culture at 30° C. for 24 hours, turbidity (OD600) was measured to check growth. Subsequently, individual wells were stained with 0.1% crystal violet and thoroughly washed twice with physiological saline. To each well, 200 μL of ethanol was added and the absorbance (OD570) was measured to obtain the amount of the biofilm formed. The growth inhibition rate and biofilm (BF) formation inhibition rate were calculated based on OD600 and OD570 values measured and in accordance with the expressions used in Test Example 2.

The test system is the same in assay [2]. Nature of the assay: Amount of biofilm formed (crystal violet, OD570), 96-well microplate culture. Format: cell-based. The procedure: Pseudomonas PAO1 strain (ATCC 15692) was subjected to stationary culture performed in LB culture medium (Lysogeny Broth; manufactured by Becton Dickinson) at 37° C. for 24 hours. The turbidity (OD600) of the culture solution was measured. The culture solution was diluted with Mueller Hinton Broth (BBL made) to prepare a suspension (15 mL) having a turbidity (OD600) of 1/10^6. […]
as §1
BF inhibition (%)={1−(compound addition group OD570/control group OD570)}×100
as §2, §3

[3] abbreviates: Pseudomonas, read-out: Growth inhibition (%).
Setting [4] is: Pseudomonas, read-out: BF inhibition (%).
Setting [5] is: high concentration range of 200 ppm or more.

For the compound `CCCc1c(O)cccc1O` [Compound 4, 2-Propylresorcinol], the inhibition at 101 ppm in assay [1] (Pseudomonas, Test Example 3, final concentration 101 ppm) was less than 0%; in assay [2] (Pseudomonas, Test Example 3, final concentration 101 ppm, read-out: BF inhibition (%)) it was less than 0%. Besides, the inhibition at 203 ppm is 20.5% in assay [1] (Pseudomonas, Test Example 3, final concentration 203 ppm) and less than 0% in assay [2] (Pseudomonas, Test Example 3, final concentration 203 ppm, read-out: BF inhibition (%)). Moreover, the inhibition at 405 ppm is less than 0% in assay [1] (Pseudomonas, Test Example 3, final concentration 405 ppm) and less than 0% in assay [2] (Pseudomonas, Test Example 3, final concentration 405 ppm, read-out: BF inhibition (%)). The inhibition at 608 ppm in assay [1] (Pseudomonas, Test Example 3, final concentration 608 ppm) worked out at 6.8%; in assay [2] (Pseudomonas, Test Example 3, final concentration 608 ppm, read-out: BF inhibition (%)), 7.9%. For the same compound, the inhibition at 709 ppm in assay [1] (Pseudomonas, Test Example 3, final concentration 709 ppm) is 16.4%; in assay [2] (Pseudomonas, Test Example 3, final concentration 709 ppm, read-out: BF inhibition (%)), 21.7%. Moreover, the inhibition at 810 ppm in assay [1] (Pseudomonas, Test Example 3, final concentration 810 ppm) is less than 0%; in assay [2] (Pseudomonas, Test Example 3, final concentration 810 ppm, read-out: BF inhibition (%)) it was 14.1%.

For `Cc1c(O)cccc1O` [Compound 6, 2-Methylresorcinol], the inhibition at 83 ppm in assay [1] (Pseudomonas, Test Example 3, final concentration 83 ppm) was less than 0%; in assay [2] (Pseudomonas, Test Example 3, final concentration 83 ppm, read-out: BF inhibition (%)), less than 0%. Moreover, the inhibition at 165 ppm was 5.2% in assay [1] (Pseudomonas, Test Example 3, final concentration 165 ppm) and less than 0% in assay [2] (Pseudomonas, Test Example 3, final concentration 165 ppm, read-out: BF inhibition (%)). The inhibition at 331 ppm in assay [1] (Pseudomonas, Test Example 3, final concentration 331 ppm) is less than 0%; in assay [2] (Pseudomonas, Test Example 3, final concentration 331 ppm, read-out: BF inhibition (%)), less than 0%. Further, the inhibition at 496 ppm in assay [1] (Pseudomonas, Test Example 3, final concentration 496 ppm) came to 12.3%; in assay [2] (Pseudomonas, Test Example 3, final concentration 496 ppm, read-out: BF inhibition (%)) it was 53%. Besides, the inhibition at 579 ppm in assay [1] (Pseudomonas, Test Example 3, final concentration 579 ppm) was 20%; in assay [2] (Pseudomonas, Test Example 3, final concentration 579 ppm, read-out: BF inhibition (%)) it was 52.2%. Also, the inhibition at 661 ppm in assay [1] (Pseudomonas, Test Example 3, final concentration 661 ppm) was 13.3%; in assay [2] (Pseudomonas, Test Example 3, final concentration 661 ppm, read-out: BF inhibition (%)), 56.3%.

Take `Cc1cc(O)c(C)c(O)c1` [Compound 5, 2,5-Dimethylresorcinol]: in assay [1] (setting [3]), the inhibition at 92 ppm is less than 0%, the inhibition at 184 ppm was less than 0%, the inhibition at 368 ppm was less than 0% and the inhibition at 552 ppm worked out at 9.3%. Further, in assay [1] (setting [3]), the inhibition at 644 ppm stood at 14% and the inhibition at 736 ppm was 11.1%. In assay [2] (setting [4]), the inhibition at 92 ppm is less than 0%, the inhibition at 184 ppm amounted to 0.4%, the inhibition at 368 ppm is less than 0% and the inhibition at 552 ppm was found to be 10.4%. In addition, in assay [2] (setting [4]), the inhibition at 644 ppm turned out to be 20.4% and the inhibition at 736 ppm was 55%.

`Cc1cc(O)cc(C)c1O` [d, 2,6-Dimethylhydroquinone]: the inhibition at 5 ppm in assay [1] (Pseudomonas, final concentration 5 ppm) is less than 0%; in assay [2] (Pseudomonas, final concentration 5 ppm, read-out: BF inhibition (%)), 12.7%. The inhibition at 9 ppm worked out at 6.3% in assay [1] (Pseudomonas, final concentration 9 ppm) and 11.2% in assay [2] (Pseudomonas, final concentration 9 ppm, read-out: BF inhibition (%)). Moreover, the inhibition at 18 ppm in assay [1] (Pseudomonas, final concentration 18 ppm) was 0.8%; in assay [2] (Pseudomonas, final concentration 18 ppm, read-out: BF inhibition (%)), less than 0%. In addition, the inhibition at 27 ppm came to 6.6% in assay [1] (Pseudomonas, final concentration 27 ppm) and 6.3% in assay [2] (Pseudomonas, final concentration 27 ppm, read-out: BF inhibition (%)). Moreover, the inhibition at 32 ppm in assay [1] (Pseudomonas, final concentration 32 ppm) amounted to 14%; in assay [2] (Pseudomonas, final concentration 32 ppm, read-out: BF inhibition (%)), 17.8%. Further, the inhibition at 37 ppm came out at 5.4% in assay [1] (Pseudomonas, final concentration 37 ppm) and 31.9% in assay [2] (Pseudomonas, final concentration 37 ppm, read-out: BF inhibition (%)).

Take `Cc1cc(O)ccc1O` [b, 2-Methylhydroquinone]: the inhibition at 16 ppm in assay [1] (Pseudomonas, final concentration 16 ppm) is 31.2%; in assay [2] (Pseudomonas, final concentration 16 ppm, read-out: BF inhibition (%)), 51.4%. Besides, the inhibition at 33 ppm in assay [1] (Pseudomonas, final concentration 33 ppm) is less than 0%; in assay [2] (Pseudomonas, final concentration 33 ppm, read-out: BF inhibition (%)) it was 42.5%. Moreover, the inhibition at 65 ppm in assay [1] (Pseudomonas, final concentration 65 ppm) worked out at 4%; in assay [2] (Pseudomonas, final concentration 65 ppm, read-out: BF inhibition (%)), 76.5%. Besides, the inhibition at 98 ppm in assay [1] (Pseudomonas, final concentration 98 ppm) was less than 0%; in assay [2] (Pseudomonas, final concentration 98 ppm, read-out: BF inhibition (%)), 87.3%. For the same compound, the inhibition at 114 ppm in assay [1] (Pseudomonas, final concentration 114 ppm) stood at 1.5%; in assay [2] (Pseudomonas, final concentration 114 ppm, read-out: BF inhibition (%)), 95.2%. Also, the inhibition at 130 ppm in assay [1] (Pseudomonas, final concentration 130 ppm) was found to be 0%; in assay [2] (Pseudomonas, final concentration 130 ppm, read-out: BF inhibition (%)) it was 96.2%. Besides, the “Growth OD600” value in assay [1] (final concentration 7 ppm, EtOH control 0.5913) is on record as 0.6114; in assay [1] (final concentration 20 ppm, EtOH control 0.6346), 0.6276; in assay [1] (final concentration 33 ppm, EtOH control 0.668), 0.6291; in assay [1] (final concentration 67 ppm, EtOH control 0.628), 0.471; in assay [1] (final concentration 200 ppm, EtOH control 0.6045), 0.3373; in assay [1] (final concentration 333 ppm, EtOH control 0.6088), 0.4302. Besides, the “microbial growth (in words)” value in assay [1] (setting [5]) is “inhibited”. Moreover, the “The amount of the biofilm formed OD570” value in assay [2] (final concentration 7 ppm, EtOH control 0.9163) was 0.7615; in assay [2] (final concentration 20 ppm, EtOH control 0.9564) it was 0.7848; in assay [2] (final concentration 33 ppm, EtOH control 0.8974), 0.739; in assay [2] (final concentration 67 ppm, EtOH control 0.8853) it was 0.5875; in assay [2] (final concentration 200 ppm, EtOH control 0.9248), 0.0566; in assay [2] (final concentration 333 ppm, EtOH control 0.9562) it was 0.0744. Moreover, the “biofilm formation (in words)” value in assay [2] (setting [5]) and in assay [2] (low concentration range of less than 200 ppm) was “inhibited” each time.

Consider `CC(C)(C)C1=CC(=O)C=CC1=O` [k, tert-Butylbenzoquinone], for which the inhibition at 22 ppm was 8.9% in assay [1] (Pseudomonas, final concentration 22 ppm) and less than 0% in assay [2] (Pseudomonas, final concentration 22 ppm, read-out: BF inhibition (%)). The inhibition at 44 ppm was less than 0% in assay [1] (Pseudomonas, final concentration 44 ppm) and less than 0% in assay [2] (Pseudomonas, final concentration 44 ppm, read-out: BF inhibition (%)). The inhibition at 88 ppm in assay [1] (Pseudomonas, final concentration 88 ppm) is less than 0%; in assay [2] (Pseudomonas, final concentration 88 ppm, read-out: BF inhibition (%)), less than 0%. In addition, the inhibition at 131 ppm in assay [1] (Pseudomonas, final concentration 131 ppm) was less than 0%; in assay [2] (Pseudomonas, final concentration 131 ppm, read-out: BF inhibition (%)), less than 0%. For the same compound, the inhibition at 154 ppm is less than 0% in assay [1] (Pseudomonas, final concentration 154 ppm) and 26.2% in assay [2] (Pseudomonas, final concentration 154 ppm, read-out: BF inhibition (%)). The inhibition at 175 ppm was less than 0% in assay [1] (Pseudomonas, final concentration 175 ppm) and 30.3% in assay [2] (Pseudomonas, final concentration 175 ppm, read-out: BF inhibition (%)).
